One data set has as its system Jurkat cell line. Put plainly: Cytotoxicity of compounds of Formula I, Example 3 (CellTiter-Glo). The format is cell-based, Human. As to conditions: for pEC50: Homo sapiens, 72 h. Here is the method: (§1) Compounds were tested on Jurkat and HCC1954 cell lines to assess their cytotoxicity. Compounds were titrated 1:3 starting at various concentrations (30 nM to 1000 nM). Control cytotoxin HTI-286 (see, e.g., U.S. Pat. No. 7,579,323) was also titrated 1:3 across starting with a 30 nM concentration. Plates were incubated for 3 days. Cell viability was quantified using 30 μL/well of 1× CellTiter-Glo reagent.
(§2) Each cell line was grown in its respective growth medium until seeding day. Cells were removed from their culture vessels and the resulting cell suspension was counted using the ViCell. Cells were then diluted in their growth medium to 25000/mL such that 100 μL/well=2500 cells/well. Each cell line was seeded in the inner 60 wells of 96-well black walled TC plates, outer wells filled with water. HCC1954 were seeded a day prior to assay set up. Cytotoxins were diluted as described below a 5× dose-response of each compound was prepared using RPMI+10% FBS in a deep-well 96-well plate. This “master” dilution plate was used for each cell line. 25 μL of the 5× dose responses was spiked into each cell line in triplicate. The plates were returned to the incubator and were incubated for 3 nights. After the 3 nights, cell viability was quantified using 30 μL/well of 1× CellTiter-glo reagent. After at least 10 minutes of incubation, the luminescence was measured using the SpectraMax (500 ms integration).

Data set [1] concerns Human T-cell leukemia cell line Jurkat. Put plainly: Cellular cytotoxicity of compounds of Formula I, Example 3.1. The format is cell-based. The conditions noted are these: for EC50: Homo sapiens, Jurkat, read-out: EC50 (nM) Jurkat. Here is the method:
(§3) Compounds were tested on one or more of Human T-cell leukemia cell line Jurkat (ATCC: TIB-152); Human breast cancer cell lines HCC1954 (ATCC: CRL-2338) and JIMT-1 (DSMZ: ACC 589); Human Pancreatic cell line BxPC-3 (ATCC: CRL.1687), Human ovarian adenocarcinoma cell line SK-OV-3 (ATCC: HTB-77) and Human gastric carcinoma cell line NCI-N87 (ATCC: CRL. 5822); to assess their cytotoxicity.
(§4) Briefly, cells were obtained from commercial sources and cultured as described in the product sheet provided. Cells were removed from their culture vessels and the resulting cell suspension was counted using a ViCell (Beckman Coulter), then seeded at 25,000 cells/mL (2,500 cells/well) in Costar 3904 black walled, flat bottomed 96-well plates (cells were seeded in the inner 60 wells of 96-well TC plates, and outer edge wells filled with water). Adherent cell lines were incubated for one night at 37° C./5% CO2 atmosphere to allow the cells to attach to the microtiter plate surface, while suspension (Jurkat) cells were plated immediately before use. Cytotoxins were dissolved and serially diluted in dimethyl sulfoxide and then the solutions were added to complete growth medium at five-times the desired maximum final concentration. The cytotoxins were then titrated in growth medium, normally 1:3, over eight steps. A control with no test article present (growth medium alone) was included on each microtiter plate in sextuplicate. The prepared toxin titrations were added (25 μL/well) in triplicate to each cell line assayed. The cells and titrations were incubated at 37° C./5% CO2 for three nights (Jurkat) and five nights (all other cell lines). After the incubation, cell viability was measured using CellTiter-Glo® by adding 30 μL of prepared CellTiter-Glo® reagent to each assay well. The mixtures were incubated for at least twenty minutes in the dark prior to measuring emitted luminescence using a microplate luminometer (500 ms integration time). The collected relative luminescence units (RLU) were converted to % cytotoxicity using the growth medium alone control mentioned above (% Cytotoxicity=1-[well RLU/average medium alone control RLU]×100%).

Another data set relates to Jurkat cells. Put plainly: Cell cycle arrest assay. The conditions noted are these: 50 nM, 24 h, propidium iodide. The format is cell-based, Human. Here is the method: Jurkat cells (ATCC), cultured in RMPI-1640 media supplemented with 10% FBS, were obtained in logarithmic growth. 1 million cells/ml were seeded into a 12-well tissue-culture treated plate in a 950 μL, volume. Cells were treated with Compound 5 in 50 μL of growth media such that the final concentration of Compound 5 was 50 nM, control cells were given 50 μL of growth media alone. Cells were incubated for 24 h at 37° C., 5% CO2 in a humidified incubator. Following incubation, cells were thoroughly resuspended and transferred to 5 mL FACS tubes, and stored on ice. Two washes were performed by spinning cells down in a swinging-bucket centrifuge at 450×g for 4 min, resuspending in 1 mL ice-cold PBS. Cells were fixed through the addition of 3 mL ice-cold 100% ethanol in a dropwise fashion under vortex, and immediately stored at 4° C. for 1 h. During the 1 h incubation, the following staining solution was prepared in ice-cold PBS: 10 μg/ml propidium iodide, 10 U/ml RNAse 1f, and 0.05% Triton X-100. Following the 1 h fixation incubation, ethanol was removed by spinning cells as described above, and washing twice in 1 mL ice-cold PBS. Cells were resuspended in 500 μL of the above-mentioned staining solution, and incubated at room temperature for 1 h. […] Histograms were generated using FCS Express, plotting # of events against fluorescence in FL-3.

A further data set concerns HCC1954 cell line. Put plainly: Cytotoxicity of compounds of Formula I, Example 3 (CellTiter-Glo). In kind it is cell-based. The conditions noted are these: Homo sapiens, 72 h, 3 days incubation. Here is the method:
as §1, §2
(Cellular ATP, detected with luciferase, serves as a proxy for viable cell number.)

Data set [2] relates to Human gastric carcinoma cell line NCI-N87. The experiment in a line: Cellular cytotoxicity of compounds of Formula I, Example 3.1. The format is cell-based. As to conditions: five nights, CellTiter-Glo. Here is the method:
as §3, §4

In data set [3] the test system is Human Pancreatic cell line BxPC-3. The data set is described as above. The format is cell-based. As to conditions: five nights, CellTiter-Glo. Here is the method:
as §3, §4

Data set [4] concerns Human breast cancer cell line HCC1954. Described as above. The conditions noted are these: five nights, CellTiter-Glo, read-out: EC50 (nM) HCC-1954. The format is cell-based. Here is the method: as §3, §4
Data set [5] concerns Human breast cancer cell line JIMT-1. The data set is described as above. In kind it is cell-based. As to conditions: five nights, CellTiter-Glo. Here is the method:
as §3, §4

Data set [6] relates to Human ovarian adenocarcinoma cell line SK-OV-3. The description is as above. In kind it is cell-based. The conditions noted are these: five nights, CellTiter-Glo, read-out: EC50 (nM) SKOV-3. Here is the method: as §3, §4
Where [7] appears, read: 3 days incubation, CellTiter-Glo, read-out: EC50.

pEC50: −log10 of the molar value. Where two headings read alike, the source gives them in different places.

As a reminder, the pEC50 is the EC50 on a negative log10 scale, so that one unit is a factor of ten. Usually EC50 stands for the concentration needed to bring the measured effect to its halfway point.

As to `CC[C@H](C)[C@@H]([C@@H](CC(=O)N1CCC[C@H]1[C@H](OC)[C@@H](C)C(=O)NS(=O)(=O)c1ccc(NC(=O)C(F)(F)F)cc1)OC)N(C)C(=O)[C@@H](NC(=O)[C@H](C(C)C)N(C)C)C(C)C` [Compound 4, (S)-2-((S)-2-(Dimethylamino)-3-methylbutanamido)-N-((3R,4S,5S)-3-methoxy-1-((S)-2-((1R,2R)-1-methoxy-2-methyl-3-oxo-3-(4-(2,2,2-trifluoroacetamido)phenylsulfonamido)propyl)pyrrolidin-1-yl)-5-methyl-1-oxoheptan-4-yl)-N,3-dimethylbutanamide], the pEC50 with Jurkat cell line (setting [7]) was 7.74. The EC50 in data set [1] (three nights, CellTiter-Glo) was 18.1 nM.

With `CC[C@H](C)[C@@H]([C@@H](CC(=O)N1CCC[C@H]1[C@H](OC)[C@@H](C)C(=O)NS(=O)(=O)c1ccc(N)cc1)OC)N(C)C(=O)[C@@H](NC(=O)[C@H](C(C)C)N(C)C)C(C)C` [Compound 5, (S)-N-((3R,4S,5S)-1-((S)-2-((1R,2R)-3-(4-Aminophenylsulfonamido)-1-methoxy-2-methyl-3-oxopropyl)pyrrolidin-1-yl)-3-methoxy-5-methyl-1-oxoheptan-4-yl)-2-((S)-2-(dimethylamino)-3-methylbutanamido)-N,3-dimethylbutanamide], the “Cell cycle phase (DNA content histograms)” value in the data set on Jurkat cells is listed as “pronounced shift towards G2/M phase”. In addition, the pEC50 in the data set with HCC1954 cell line is 8.05; with Jurkat cell line (setting [7]) it was 7.77. Further, the EC50 in [2] is 12 nM; in data set [3] it was 18.2 nM; in [4], 8.9 nM; in data set [5], 9.3 nM; in [1] (three nights, CellTiter-Glo), 13.6 nM; in [6], 23.7 nM.

On to `CC[C@H](C)[C@@H]([C@@H](CC(=O)N1CCC[C@H]1[C@H](OC)[C@@H](C)C(=O)NS(=O)(=O)Cc1ccc(NC(=O)C(F)(F)F)cc1)OC)N(C)C(=O)[C@@H](NC(=O)[C@H](C(C)C)N(C)C)C(C)C` [Compound 7, (S)-2-((S)-2-(Dimethylamino)-3-methylbutanamido)-N-((3R,4S,5S)-3-methoxy-1-((S)-2-((1R,2R)-1-methoxy-2-methyl-3-oxo-3-((4-(2,2,2-trifluoroacetamido)phenyl)methylsulfonamido)propyl)pyrrolidin-1-yl)-5-methyl-1-oxoheptan-4-yl)-N,3-dimethylbutanamide], for which, in the data set with Jurkat cell line (setting [7]), the pEC50 is 7.52. In addition, the concentration giving a half-maximal response (EC50) in [1] (three nights, CellTiter-Glo) is 29.9 nM.

For the compound `CC[C@H](C)[C@@H]([C@@H](CC(=O)N1CCC[C@H]1[C@H](OC)[C@@H](C)C(=O)N[C@@H](Cc1ccccc1)C(=O)NS(=O)(=O)c1ccc(NC(=O)C(F)(F)F)cc1)OC)N(C)C(=O)[C@@H](NC(=O)[C@H](C(C)C)N(C)C)C(C)C` [Compound 10, (S)-2-((S)-2-(Dimethylamino)-3-methylbutanamido)-N-((3R,4S,5S)-3-methoxy-1-((S)-2-((1R,2R)-1-methoxy-2-methyl-3-oxo-3-((S)-1-oxo-3-phenyl-1-(4-(2,2,2-trifluoroacetamido)phenylsulfonamido)propan-2-ylamino)propyl)pyrrolidin-1-yl)-5-methyl-1-oxoheptan-4-yl)-N,3-dimethylbutanamide], the pEC50 in the data set with Jurkat cell line was 7.34. Besides, the EC50 in data set [1] turned out to be 45.3 nM.

Consider `CC[C@H](C)[C@@H]([C@@H](CC(=O)N1CCC[C@H]1[C@H](OC)[C@@H](C)C(=O)N[C@@H](Cc1ccccc1)C(=O)NS(=O)(=O)c1ccc(N)cc1)OC)N(C)C(=O)[C@@H](NC(=O)[C@H](C(C)C)N(C)C)C(C)C` [Compound 11, (S)-N-((3R,4S,5S)-1-((S)-2-((1R,2R)-3-((S)-1-(4-Aminophenylsulfonamido)-1-oxo-3-phenylpropan-2-ylamino)-1-methoxy-2-methyl-3-oxopropyl)pyrrolidin-1-yl)-3-methoxy-5-methyl-1-oxoheptan-4-yl)-2-((S)-2-(dimethylamino)-3-methylbutanamido)-N,3-dimethylbutanamide], for which, in the data set with Jurkat cell line (setting [7]), the pEC50 was 7.28. In [1] (three nights, CellTiter-Glo), the EC50 turned out to be 52 nM.

`CC[C@H](C)[C@@H]([C@@H](CC(=O)N1CCC[C@H]1[C@H](OC)[C@@H](C)C(=O)N[C@@H](Cc1ccccc1)C(=O)NS(=O)(=O)Cc1ccc(NC(=O)C(F)(F)F)cc1)OC)N(C)C(=O)[C@@H](NC(=O)[C@H](C(C)C)N(C)C)C(C)C` [Compound 13, (S)-2-((S)-2-(Dimethylamino)-3-methylbutanamido)-N-((3R,4S,5S)-3-methoxy-1-((S)-2-((1R,2R)-1-methoxy-2-methyl-3-oxo-3-((S)-1-oxo-3-phenyl-1-(4-(2,2,2-trifluoroacetamido)phenylmethylsulfonamido)propan-2-ylamino)propyl)pyrrolidin-1-yl)-5-methyl-1-oxoheptan-4-yl)-N,3-dimethylbutanamide] gave a pEC50 in the data set with Jurkat cell line of 7.68. In data set [1], the EC50 was 20.9 nM.

For the compound `CN[C@H](C(=O)N[C@H](C(=O)N(C)[C@H](/C=C(\C)C(=O)O)C(C)C)C(C)(C)C)C(C)(C)c1ccccc1` [HTI-286, reference compound], the “Killing by control cytotoxin” value in the data set with Jurkat cell line (titrated 1:3 starting with 30 nM) was “successfully killed Jurkats at an expected concentration”; in data set [1] (stated for all cell lines of Example 3.1), “successfully killed all cell lines at an expected concentration”.

(Values after patent US10450378B2, “Cytotoxic and anti-mitotic compounds, and methods of using the same” (priority 2014, dated 2019).)
